In patent US20070225291A1, “Substituted Pyrazinone Compounds for the Treatment of Inflammation” (Pfizer Inc., priority 2003, published 2007):

Target: T1, IKK-2 (Homo sapiens, UniProt O14920)
T1 construct: made in house; host or cells: baculovirus-infected insect cells (SF9)
T1 sequence (O14920 1-756): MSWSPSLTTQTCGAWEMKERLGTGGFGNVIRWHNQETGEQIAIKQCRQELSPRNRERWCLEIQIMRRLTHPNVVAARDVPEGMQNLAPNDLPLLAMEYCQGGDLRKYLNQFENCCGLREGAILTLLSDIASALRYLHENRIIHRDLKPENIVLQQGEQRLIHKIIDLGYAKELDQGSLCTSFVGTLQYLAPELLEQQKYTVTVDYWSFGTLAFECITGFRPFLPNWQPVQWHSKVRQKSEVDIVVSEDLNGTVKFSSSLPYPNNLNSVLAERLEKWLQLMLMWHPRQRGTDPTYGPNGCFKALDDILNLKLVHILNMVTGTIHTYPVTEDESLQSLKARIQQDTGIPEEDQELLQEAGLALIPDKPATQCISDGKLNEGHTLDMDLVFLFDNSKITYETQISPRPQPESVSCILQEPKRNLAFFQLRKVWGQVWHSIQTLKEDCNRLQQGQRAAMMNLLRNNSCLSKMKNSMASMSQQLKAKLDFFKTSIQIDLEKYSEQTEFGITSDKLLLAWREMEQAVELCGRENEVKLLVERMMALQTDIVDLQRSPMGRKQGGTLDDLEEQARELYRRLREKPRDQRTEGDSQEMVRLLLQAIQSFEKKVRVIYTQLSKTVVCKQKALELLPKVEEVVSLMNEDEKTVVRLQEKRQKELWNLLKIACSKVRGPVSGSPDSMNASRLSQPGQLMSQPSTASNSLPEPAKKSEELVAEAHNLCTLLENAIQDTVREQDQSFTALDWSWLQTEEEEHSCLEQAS
Test: IKK-2 Resin Enzyme Assay (IKK-2 IC50 determination)
Assay type: biochemical
Conditions: rhIKK-2 homodimer; biotinylated IκBα peptide 5 μM, 1 μM ATP, 25° C., 30 min
Source text: cDNAs of human IKK-1 and IKK-2 were amplified by reverse transcriptase-polymerase chain reaction from human placental RNA (Clonetech). hIKK-1 was subcloned into pFastBac HTa (Life Technologies) and expressed as N-terminal His6-tagged fusion protein. The hIKK-2 cDNA was amplified using a reverse oligonucleotide primer which incorporated the peptide sequence for a FLAG-epitope tag at the C-terminus of the IKK-2 coding region (DYKDDDDKD). The hIKK-2:FLAG cDNA was subcloned into the baculovirus vector pFastBac. The rhIKK-2 (S177S, E177E) mutant was constructed in the same vector used for wild type rhIKK-2 using a QuikChange™ mutagenesis kit (Stratagene). Viral stocks of each construct were used to infect insect cells grown in 40L suspension culture. […] Cell lysates were stored at −80° C. until purification of the recombinant proteins was undertaken as described below.
A 10-liter culture of baculovirus-expressing IKK-2 tagged with FLAG peptide was centrifuged and the cell pellet (MOI=0.1 and I=72 hrs) was re-suspended in buffer A. These cells were microfluidized, and centrifuged at 100,000×g for 45 min. Supernatant was passed over a G-25 column equilibrated with Buffer A. Protein peak was collected and incubated with anti-FLAG affinity resin on a rotator overnight in buffer B. The resin was washed in batch with 10-15 bed volumes of buffer C. Washed resin was poured into a column and rhIKK-2 homodimer was eluted using 5 bed volumes of buffer B containing FLAG peptide. 5 mM DTT, 0.1% NP-40 and BSA (concentrated to 0.1% in final amount) was added to the eluted enzyme before concentrating in using an Amicon membrane with a molecular weight cut-off of 30 kDa. Enzyme was aliquoted and stored at −80° C.
IKK-2 kinase activity was measured using a biotinylated IκBα peptide (Gly-Leu-Lys-Lys-Glu-Arg-Leu-Leu-Asp-Asp-Arg-His-Asp-Ser32-Gly-Leu-Asp-Ser36-Met-Lys-Asp-Glu-Glu) (American Peptide Co.). 20 ul of the standard reaction mixture contained 5 μM biotinylated IκBA peptide, 0.1 μCi/reaction [γ-^33P] […] ATP was measured using a Top-Count NXT (Packard).

Compound | IC50 [nM]
Nc1nc(-c2ccccc2O)cn(C2CCCNC2)c1=O (stereo not drawn) [Example 1, 3-amino-5-(2-hydroxyphenyl)-1-piperidin-3-ylpyrazin-2(1H)-one] | 1080
Nc1nc(-c2cc(F)ccc2O)cn(C2CCCNC2)c1=O (stereo not drawn) [Example 2, 3-amino-5-(5-fluoro-2-hydroxyphenyl)-1-piperidin-3-ylpyrazin-2(1H)-one] | 903
Nc1nc(-c2ccc(F)cc2O)cn(C2CCCNC2)c1=O (stereo not drawn) [Example 3, 3-amino-5-(4-fluoro-2-hydroxyphenyl)-1-piperidin-3-ylpyrazin-2(1H)-one] | 1790
